Where “and” joins values, the source holds several entries; their conditions need not be identical. Identical values can stand only once. Like-named read-outs stand apart in the source and are kept apart here.
What was measured:
[1] = target: T1, AF647‐labeled hCD1d (Homo sapiens, UniProt P15813+P61769); test: Microscale thermophoresis (MST) binding assay
T1 construct: TEV protease cleavage site ENLYFQS (C); BirA biotinylation site (C); His7 (C); made in house; host or cells: TurboCHO cells (GenScript)
Text: (§1) The experimental limitations of ITF, such as low instrument sensitivity, high sample consumption, signal overlap with some ligands, and low throughput (Fossum et al., [2023]), made it necessary to employ alternative, complementary assays to quantify detergent binding to hCD1d. […] MST measures the diffusion of fluorescent molecules in response to microscopic temperature gradients (Seidel et al., [2013]). When a protein forms a complex with a ligand, changes in hydrodynamic properties, charge, or solvation energy alter its thermophoretic behavior, allowing detection of binding events. To perform MST experiments, Alexa Fluor 647 (AF647) dye was covalently attached to the primary amines of hCD1d via standard N‐hydroxysuccinimide coupling chemistry (Anderson et al., [1964]). The concentration of AF647‐hCD1d was kept constant, and the change in MST signal was measured as a function of increasing detergent concentration (Figure S3). Like ITF, any lipid or detergent that destabilizes CD1 can also alter the MST signal since unfolding changes the protein's Stokes radius and its thermophoretic behavior. […] This is why we compare MST results with ITF and nanoDSF, as described below.
(§2) For MST, hCD1d was fluorescently labeled with AF647‐NHS Ester (Invitrogen #A20006). Briefly, a 10 mM stock of AF647‐NHS was prepared in anhydrous DMSO. Then, 100 μL of 50 μM hCD1d in 1X PBS pH 7.4 was mixed with 1 μL of 10 mM AF647‐NHS (1:2 molar ratio of protein: dye). The mixture was allowed to react for 1 h in the dark at 25°C. Unreacted dye was removed from the protein–dye conjugate by performing size exclusion chromatography in the dark with a Superdex 200 Increase 10/300 GL column at a flow rate of 0.5 mL/min in SEC buffer (100 mM NaCl, 20 mM sodium phosphate, pH 7.2). The degree of labeling was determined by a NanoDrop spectrophotometer at A647 nm (dye absorbance) and A280 nm (hCD1d absorbance). The degree of labeling was determined from the ratio of dye concentration to protein concentration. The degree of labeling was ~75%.
(§3) MST experiments were performed using a Monolith NT.115 instrument (NanoTemper Technologies) using Monolith standard capillaries and the red excitation laser setup. The following settings were applied for all MST experiments: excitation power: 30%–50%, MST power: medium, before MST time: 3 s, MST on time (IR laser): 20 seconds, and after MST time: 1 s. MST measurements were analyzed using the Monolith Affinity Analysis software v2.3 and exported for plotting in GraphPad Prism v10.1. Three replicates were performed, and data are presented as the mean ± standard deviation (n = 3).
(§4) MST measurements of 100 nM AF647‐hCD1d were acquired in the absence and presence of detergents in 1X PBS pH 7.4 at 25°C. Prior to data acquisition, hCD1d and detergent or lipid samples were incubated at 37°C overnight (~12 h) to simulate in vitro and in vivo loading conditions. […] For 18:1 LPC experiments: MST data of 100 nM AF647‐hCD1d were acquired in the absence and presence of 18:1 LPC in 1X PBS pH 7.4 at 25°C.

[2] = approximate, cited from earlier work
[3] = system: CD1c; parameters: method as in Mansour et al., 2016; settings: ref Mansour et al., 2016; cited from earlier work
[4] = target: T2, recombinant human CD1d ectodomain/β2m complex (hCD1d) (Homo sapiens, UniProt P15813); test: Intrinsic tryptophan fluorescence (ITF) binding assay; settings: 18:1 LPC titration with 0.05% CHAPS; read-out: K D (ITF) of lipid
T2 construct: TEV protease cleavage site ENLYFQS (C); BirA biotinylation site (C); His7 (C); made in house; host or cells: TurboCHO cells (GenScript)
Description: For ITF assays, the concentration of hCD1d was kept constant, and intrinsic Trp fluorescence (excitation at 285 nm, emission at 335 nm) was measured as a function of increasing detergent concentration (Fossum et al., [2023]) (Figure S2). The change in relative fluorescence intensity (F − F 0/F 0) provides an indication of binding. […] This was due to limited detergent solubility and decreased hCD1d stability in the presence of a large excess of detergent (see below). […] SDS was the exception, for which Trp fluorescence of hCD1d decreased with added detergent. This could indicate a unique conformational change or destabilization of the protein.
ITF spectra were recorded from 300 to 500 nm using a Horiba FL3‐21 Fluorometer with the excitation wavelength of 285 nm and excitation/emission slits of 6.2 nm. Fluorescence spectra of 50 to 100 nM hCD1d were acquired in the absence and presence of detergents in 1X PBS pH 7.4 at 25°C. Prior to data acquisition, hCD1d and detergent or lipid samples were incubated at 37°C overnight (~12 h) to simulate in vitro and in vivo loading conditions. […] For 18:1 LPC experiments, fluorescence spectra of 100 nM hCD1d were acquired in the absence and presence of 18:1 LPC in 1X PBS pH 7.4 at 25°C. […] For all ITF experiments, the change in fluorescence signal (F − F 0/F 0) was determined at 335 nm. Three replicates were performed, and data are presented as the mean ± standard deviation (n = 3). K D values were fitted with non‐linear regression in GraphPad Prism v10.1.

[5] = target: T3, AF647‐labeled hCD1d (Homo sapiens, UniProt P15813); test: Microscale thermophoresis (MST) binding assay; settings: read-out: K D (MST) of lipid
T3 construct: TEV protease cleavage site ENLYFQS (C); BirA biotinylation site (C); His7 (C); made in house; host or cells: TurboCHO cells (GenScript)
Text: as §1, §2, §3, §4

[6] = target: T4, hCD1d (Homo sapiens, UniProt P15813+P61769); test: Nano differential scanning fluorimetry (nanoDSF) thermal stability; format: binding; parameters: TEV protease cleavage site ENLYFQS (C); BirA biotinylation site (C); His7 (C); made in house; host or cells: TurboCHO cells (GenScript)
Text: We next sought to probe the ability of each detergent to influence the thermal stability of hCD1d. NanoDSF has been previously applied to measure lipid/detergent‐induced thermal stability changes in target proteins (Cecchetti et al., [2021]; Kotov et al., [2019]), but has not yet been applied to ligand binding to CD1. NanoDSF measures the ITF ratio (F 350 nm/F 330 nm) of proteins as a function of temperature to extract thermodynamic parameters. Given that ligand binding typically shifts the melting temperature of proteins, the effect of a ligand on protein stability can be approximated with the ΔT m value (the difference in T m with and without excess ligand) (Cecchetti et al., [2021]; Kotov et al., [2019]). We found all detergents tested to destabilize hCD1d, albeit to different degrees, with ΔT m values ranging from −0.8 to −14.2°C (Figures 4, S4, and Table 1).
Nano differential scanning fluorometry (nanoDSF) was performed using a Prometheus NT.48 (NanoTemper Technologies). Purified hCD1d at 1 μM in 1X PBS pH 7.4 was loaded into nanoDSF grade standard capillaries (NanoTemper Technologies) and exposed to temperatures ranging from 20 to 95°C with a thermal ramping rate of 1°C/min. Excitation power was set to 50%. The ratio of intrinsic fluorescence emission (F 350 nm/F 330 nm) was monitored. Melting temperatures (T m) were obtained from fitting the first derivative plots in the Prometheus NT.48 Software. The experiments were performed in triplicate, and data are presented as the mean ± standard deviation (n = 3).
For experiments with most detergents, prior to data acquisition, hCD1d and detergent or lipid samples were incubated at 37°C overnight (~12 h) to simulate in vitro and in vivo loading conditions. […] For 18:1 LPC experiments: nanoDSF spectra were acquired in the absence and presence of 18:1 LPC in 1X PBS pH 7.4 at 25°C.

[7] = Lipid solubility on resuspension in buffer; format: physicochemical; settings: 1X PBS pH 7.4 with or without detergent
Text: Detergents were resuspended to desired stock concentrations in 1X PBS pH 7.4 using sonication/heating. The following lipids were purchased: 1‐oleoyl‐2‐hydroxy‐sn‐glycero‐3‐phosphocholine (18:1 LPC, Avanti Research #845875) and α‐galactosyl ceramide (α‐GalCer, Avanti Research #867000).

[8] = target: T4, hCD1d; parameters: method as in Cantu et al., 2003; Naidenko et al., 1999; settings: previously estimated, in the presence of detergent; ref Cantu et al., 2003; Naidenko et al., 1999; read-out: binding affinity to hCD1d; cited from earlier work
[9] = 0.001 M detergent, 100 nM AF647‐hCD1d
[10] = Figure 5B, detergent binding to hCD1d, read-out: MST - Kd (uM) average
[11] = detergent with 100 nM AF647‐labeled hCD1d, 25°C, apparent, read-out: K D (MST)

T1 sequence (P61769+P15813 fused): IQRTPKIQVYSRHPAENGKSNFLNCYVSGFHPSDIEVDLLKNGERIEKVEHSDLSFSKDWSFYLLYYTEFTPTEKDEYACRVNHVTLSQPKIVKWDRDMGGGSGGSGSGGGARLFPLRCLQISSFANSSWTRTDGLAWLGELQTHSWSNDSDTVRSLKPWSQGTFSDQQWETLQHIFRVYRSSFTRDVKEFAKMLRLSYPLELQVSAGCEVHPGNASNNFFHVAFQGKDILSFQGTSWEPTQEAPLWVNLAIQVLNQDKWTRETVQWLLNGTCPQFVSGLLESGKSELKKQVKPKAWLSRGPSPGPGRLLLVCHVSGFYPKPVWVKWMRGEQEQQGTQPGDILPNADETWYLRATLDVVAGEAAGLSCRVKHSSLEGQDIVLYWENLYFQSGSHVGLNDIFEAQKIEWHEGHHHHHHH
T4 sequence (P61769+P15813 fused): as above
T3 sequence (P15813 whole entry, looked up): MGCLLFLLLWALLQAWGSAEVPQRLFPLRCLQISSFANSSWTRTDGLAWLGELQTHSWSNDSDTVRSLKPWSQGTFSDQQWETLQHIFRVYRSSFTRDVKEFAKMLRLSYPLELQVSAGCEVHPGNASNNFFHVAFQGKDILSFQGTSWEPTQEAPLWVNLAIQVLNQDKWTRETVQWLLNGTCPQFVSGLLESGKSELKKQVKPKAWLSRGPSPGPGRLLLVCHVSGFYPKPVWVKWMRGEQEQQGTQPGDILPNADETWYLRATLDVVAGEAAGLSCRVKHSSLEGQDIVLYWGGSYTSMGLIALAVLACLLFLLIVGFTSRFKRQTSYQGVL
T2 sequence (P15813 whole entry, looked up, the tested form may be a part, one chain of several): as the sequence (P15813 whole entry, looked up) above

Fnorm (rep 1-3) ([1]; 3.05176e-8 M detergent) | Fnorm (rep 1-3) ([1]; 6.10352e-8 M detergent) | Fnorm (rep 1-3) ([1]; 1.2207e-7 M detergent) | Fnorm (rep 1-3) ([1]; 2.44141e-7 M detergent) | Fnorm (rep 1-3) ([1]; 4.88281e-7 M detergent) | Fnorm (rep 1-3) ([1]; 9.76563e-7 M detergent) | Fnorm (rep 1-3) ([1]; 1.95313e-6 M detergent) | Fnorm (rep 1-3) ([1]; 3.90625e-6 M detergent) | Fnorm (rep 1-3) ([1]; 7.8125e-6 M detergent) | Fnorm (rep 1-3) ([1]; 1.5625e-5 M detergent) | Fnorm (rep 1-3) ([1]; 3.125e-5 M detergent) | Fnorm (rep 1-3) ([1]; 6.25e-5 M detergent) | Fnorm (rep 1-3) ([1]; 0.000125 M detergent) | Fnorm (rep 1-3) ([1]; 0.00025 M detergent) | Fnorm (rep 1-3) ([1]; 0.0005 M detergent) | Fnorm (rep 1-3) [1, 9] | Kd [1, 10] [µM] | Kd [1, 11] [µM] | Compound | also measured
791.41 ‰ and 793.583 ‰ and 796.04 ‰ | 790.759 ‰ and 794.057 ‰ and 796.294 ‰ | 791.349 ‰ and 794.228 ‰ and 797.32 ‰ | 790.267 ‰ and 793.445 ‰ and 796.715 ‰ | 790.372 ‰ and 793.504 ‰ and 796.705 ‰ | 791.231 ‰ and 794.12 ‰ and 796.582 ‰ | 791.888 ‰ and 794.837 ‰ and 796.079 ‰ | 797.735 ‰ and 798.529 ‰ and 800.673 ‰ | 801.114 ‰ and 802.717 ‰ and 802.805 ‰ | 806.412 ‰ and 805.281 ‰ and 808.579 ‰ | 808.925 ‰ and 810.844 ‰ and 811.355 ‰ | 813.586 ‰ and 816.925 ‰ and 817.48 ‰ | 826.07 ‰ and 832.084 ‰ and 828.584 ‰ | 828.437 ‰ and 829.609 ‰ and 830.632 ‰ | 829.715 ‰ and 832.769 ‰ and 836.286 ‰ | 833.009 ‰ and 835.212 ‰ and 836.54 ‰ | 45.8 | 45.8 ± 7.9 | Triton X‐100 | CMC ([2]; ref Anatrace catalogue): 230 µM; CMC ([2]; weight/volume, ref Anatrace catalogue): 0.015%; stripping of lipid antigens from CD1c (in words) [3]: could efficiently strip lipid antigens away
785.26 ‰ and 791.115 ‰ and 789.222 ‰ | 784.438 ‰ and 791.56 ‰ and 788.778 ‰ | 784.577 ‰ and 791.858 ‰ and 788.445 ‰ | 783.564 ‰ and 789.878 ‰ and 788.022 ‰ | 786.159 ‰ and 790.976 ‰ and 787.911 ‰ | 783.182 ‰ and 790.102 ‰ and 788.409 ‰ | 785.891 ‰ and 792.21 ‰ and 790.819 ‰ | 790.454 ‰ and 796.89 ‰ and 795.418 ‰ | 794.424 ‰ and 799.885 ‰ and 798.852 ‰ | 798.147 ‰ and 805.399 ‰ and 802.688 ‰ | 808.083 ‰ and 815.048 ‰ and 810.611 ‰ | 810.692 ‰ and 818.134 ‰ and 815.29 ‰ | 813.488 ‰ and 820.003 ‰ and 816.128 ‰ | 817.047 ‰ and 822.493 ‰ and 816.971 ‰ | 814.88 ‰ and 822.01 ‰ and 817.951 ‰ | 817.154 ‰ and 821.721 ‰ and 817.771 ‰ | 15.1 | 15.1 ± 1.5 | NP‐40 | CMC ([2]; ref Fisher catalogue): 290 µM; CMC ([2]; weight/volume, ref Fisher catalogue): 0.0179%
– | – | – | – | – | – | – | – | – | – | – | – | – | – | – | – | – | – | CCCCCCCC/C=C\CCCCCCCC(=O)OC[C@@H](O)COP(=O)([O-])OCC[N+](C)(C)C [18:1 LPC, 1‐oleoyl‐2‐hydroxy‐sn‐glycero‐3‐phosphocholine] | Kd [4]: 59.9 ± 19.4 µM; Kd ([5]; 18:1 LPC titration with 0.05% CHAPS): 5.6 ± 1.3 µM; Kd ([5]; 18:1 LPC titration, absence of detergent, 100 nM AF647‐hCD1d, 25°C): ~7.7 µM and 7.7 µM; ΔT m (nanoDSF) of lipid ([6]; absence vs presence of 200 μM 18:1 LPC, no detergent): −8.1 ± 1.7 °C
– | – | – | – | – | – | – | – | – | – | – | – | – | – | – | – | – | – | CCCCCCCCCCCCCCCCCCCCCCCCCC(=O)N[C@@H](CO[C@H]1O[C@H](CO)[C@H](O)[C@H](O)[C@H]1O)[C@H](O)[C@H](O)CCCCCCCCCCCCCC [α‐GalCer, α‐galactosyl ceramide] | Kd ([5]; α‐GalCer titration with 0.05% Tween 20, estimated): 6.6 ± 4.1 µM; solubility (in words) [7]: only soluble in the presence of Tween 20; Kd [8]: 0.1 to 0.5 µM; ΔT m (nanoDSF) of lipid ([6]; absence vs presence of 50 μM α‐GalCer, with 0.05% Tween 20): +13.7 ± 0.2 °C

Reference: publication PMC12720774, “Detergents alter the stability and lipid binding properties of the CD1d immunoreceptor” (Protein Science : A Publication of the Protein Society, 2025)
